Here are results for three compounds from US20200055896A1, “SUBSTRATES RECOGNIZED BY FIBROBLAST ACTIVATION PROTEIN (FAP) AND METHODS OF USING THE SAME” (GENENTECH, INC., priority 2017, published 2020).

Data set [1] relates to GP probe cleaving activity in plasma. The experiment in a line: GP cleavage in mouse plasma in the presence of cpd60 and/or KYP. In kind it is biochemical, mice. The protocol: (§1) Mouse plasma samples were prepared in K3-EDTA MiniCollect tubes (Greiner Bio-One, 450475) and frozen immediately at −80° C. prior to analysis. Human serum samples were obtained from healthy donors or purchased from Discovery Life Sciences, Inc. (Los Osos, Calif.).
(§2) Peptides of the region flanking the C-terminal human FGF21 cleavage site (VGPSQG) or a variant with D-alanine at P2 (VaPSQG) were synthesized (Anaspec, Inc.), containing an amine-terminal donor (HyLite Fluor 488 or Cy5.5 for aP NIRF) and a dark quencher-acceptor (QXL 520 or QSY21 for aP NIRF) conjugated to a supplementary C-terminal lysine. ANPFAP (Bioconjugate Chem 23:1704-11) and aP NIRF were synthesized by CPC Scientific (Sunnyvale, Calif.). Assays were conducted at 37° C. in 50 mM HEPES (pH 7.2), 150 mM NaCl, 1 mM EDTA, 0.1 mg/ml BSA. The excitation/emission wavelengths of cleaved peptide are 490/520 nm or 675/695 nm for ANPFAP and aP NIRF. Fluorescence was monitored on a Tecan M1000 Pro plate reader in kinetic mode. Except where indicated otherwise, measurements of serum or plasma FAP activity were performed with the peptide substrate concentration at 6 μM and a 10-fold dilution of serum or plasma in assay buffer.

The target in data set [2] is T1, circulating FAP activity (Mus musculus, UniProt P97321).
T1 construct: the extracellular domain encoding the active enzyme can be shed from the cell surface; from tissue; host or cells: mouse plasma (C57BL/6 background; Fap +/+, +/-, -/-)
T1 sequence (P97321 24-761 limits assumed): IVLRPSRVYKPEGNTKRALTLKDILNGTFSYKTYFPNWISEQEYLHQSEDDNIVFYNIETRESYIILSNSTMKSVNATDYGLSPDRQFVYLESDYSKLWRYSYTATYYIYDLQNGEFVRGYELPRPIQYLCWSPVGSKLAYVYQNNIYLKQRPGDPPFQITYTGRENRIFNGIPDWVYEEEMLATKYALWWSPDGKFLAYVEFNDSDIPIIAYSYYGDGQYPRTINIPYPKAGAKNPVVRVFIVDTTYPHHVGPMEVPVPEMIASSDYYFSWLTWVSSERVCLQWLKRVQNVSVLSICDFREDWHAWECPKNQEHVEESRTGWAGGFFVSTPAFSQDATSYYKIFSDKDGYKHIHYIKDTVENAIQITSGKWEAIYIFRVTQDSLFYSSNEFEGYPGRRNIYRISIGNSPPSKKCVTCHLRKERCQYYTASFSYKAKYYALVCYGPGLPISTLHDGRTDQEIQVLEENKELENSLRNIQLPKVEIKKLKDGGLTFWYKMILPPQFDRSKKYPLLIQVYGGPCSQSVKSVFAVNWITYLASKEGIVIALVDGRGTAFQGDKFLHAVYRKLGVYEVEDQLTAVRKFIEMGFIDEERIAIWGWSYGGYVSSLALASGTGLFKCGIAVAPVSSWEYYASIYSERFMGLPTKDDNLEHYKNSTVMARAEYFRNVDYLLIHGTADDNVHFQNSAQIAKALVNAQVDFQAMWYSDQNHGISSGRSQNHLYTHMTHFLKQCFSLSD
In words: In vivo pharmacological FAP inhibition: mice fed chow with cpd60, plasma FAP activity by aP peptide. As to conditions: chow with 100 ppm cpd60 ad libitum, day 4 and 7. The protocol:
Mice were maintained in a pathogen-free animal facility at 21° C. under standard 12 h light/12 h dark cycle with access to normal chow (Labdiet 5010) and water ad libitum unless otherwise indicated. Generation of Fap KO mice was described previously (Dunshee, et al. (2016) J Biol Chem 291:5986-96).
as §1
as §2, with “Except where indicated otherwise, measurements of serum or plasma FAP activity were performed with the peptide substrate concentration at 6 μM and a 10-fold dilution of serum or plasma in assay buffer.” left out

The test system of data set [3] is FAP-related activity. As to conditions: cynomolgus monkeys, cited from earlier work.
For data set [4], the target named is T2, tissue FAP activity (Mus musculus, UniProt P97321).
T2 construct: from tissue
T2 sequence (P97321 1-761): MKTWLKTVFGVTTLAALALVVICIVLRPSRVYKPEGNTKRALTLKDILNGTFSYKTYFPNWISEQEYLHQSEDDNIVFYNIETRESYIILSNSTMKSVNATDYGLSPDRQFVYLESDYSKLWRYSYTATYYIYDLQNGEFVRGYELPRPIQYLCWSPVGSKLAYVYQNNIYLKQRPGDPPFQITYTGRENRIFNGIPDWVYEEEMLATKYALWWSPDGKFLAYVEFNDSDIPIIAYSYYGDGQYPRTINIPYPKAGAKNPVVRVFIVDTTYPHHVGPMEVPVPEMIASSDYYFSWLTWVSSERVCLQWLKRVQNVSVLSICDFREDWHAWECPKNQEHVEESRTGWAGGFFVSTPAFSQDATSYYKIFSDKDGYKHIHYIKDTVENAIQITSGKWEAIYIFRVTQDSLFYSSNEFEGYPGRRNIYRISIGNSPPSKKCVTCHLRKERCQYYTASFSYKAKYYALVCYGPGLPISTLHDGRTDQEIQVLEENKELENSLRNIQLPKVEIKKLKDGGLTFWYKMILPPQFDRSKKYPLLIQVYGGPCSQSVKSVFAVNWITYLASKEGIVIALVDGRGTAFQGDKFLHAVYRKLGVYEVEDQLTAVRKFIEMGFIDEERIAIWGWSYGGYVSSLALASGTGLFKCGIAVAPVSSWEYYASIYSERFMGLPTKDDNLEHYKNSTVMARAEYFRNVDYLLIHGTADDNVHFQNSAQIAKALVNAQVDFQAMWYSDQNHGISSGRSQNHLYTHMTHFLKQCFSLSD
The experiment in a line: Ex vivo NIRF imaging of pancreata after i.v. probe in KPP and healthy C57BL/6 mice. The source says: The utility of the VaPSQG-NIRF probe for imaging of tissue FAP activity was studied in a genetically engineered mouse model of pancreatic cancer, KrasLSL.G12D/wt;p16/p19fl/fl;Pdx1. Cre, or “KPP” for short (Singh, M. et al. Nat. Biotechnol. 28:585-593 (2010); Aguirre, A. J. et al. Genes Dev. 17:3112-26 (2003)). […] The VaPSQG-NIRF probe was synthesized by CPC Scientific (Sunnyvale, Calif.).
Prior to the imaging study, three KPP mice (9.3 weeks old) with varying tumor volumes were selected based on an in vivo ultrasound scan. Additionally, three healthy C57BL/6 mice (8.3 weeks old) were also studied as controls. One nmol VaPSQG-NIRF probe diluted in 150 microL of PBS was intravenously administered to each mouse via tail vein under anesthesia. […] After 4 hours, the mice were euthanized and pancreas tissues were dissected. The dissected tissues were rinsed with PBS, dried with tissue paper, and put on black paper for ex vivo NIRF imaging. Near infrared images are acquired using a CCD camera (Pearl Trilogy, Li-cor).

The target of data set [5] is T3, recombinant human FAP (Homo sapiens, UniProt Q12884).
T3 construct: (residues L26-D760 and L26-D761, respectively); octa-His (N); made in house; host or cells: transiently transfected CHO cells (conditioned media)
T3 sequence (Q12884 26-760): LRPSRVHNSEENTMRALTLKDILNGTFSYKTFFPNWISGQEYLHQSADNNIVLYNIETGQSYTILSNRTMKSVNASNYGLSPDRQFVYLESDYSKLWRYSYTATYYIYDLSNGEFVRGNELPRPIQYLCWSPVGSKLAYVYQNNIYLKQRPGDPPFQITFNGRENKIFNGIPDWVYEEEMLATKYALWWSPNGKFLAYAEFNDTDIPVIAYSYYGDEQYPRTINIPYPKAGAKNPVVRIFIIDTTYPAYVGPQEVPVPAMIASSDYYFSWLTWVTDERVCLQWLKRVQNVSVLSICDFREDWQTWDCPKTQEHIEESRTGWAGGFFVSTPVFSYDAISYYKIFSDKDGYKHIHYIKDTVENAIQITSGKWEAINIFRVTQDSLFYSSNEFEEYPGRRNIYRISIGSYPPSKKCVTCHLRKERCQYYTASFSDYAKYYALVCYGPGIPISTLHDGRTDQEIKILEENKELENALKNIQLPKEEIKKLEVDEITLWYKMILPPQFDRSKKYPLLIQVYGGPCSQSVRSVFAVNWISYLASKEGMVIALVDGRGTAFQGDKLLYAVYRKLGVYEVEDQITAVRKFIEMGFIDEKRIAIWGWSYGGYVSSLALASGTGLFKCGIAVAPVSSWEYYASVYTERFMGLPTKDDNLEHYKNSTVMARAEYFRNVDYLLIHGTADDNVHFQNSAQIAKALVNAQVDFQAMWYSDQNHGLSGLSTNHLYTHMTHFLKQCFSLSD
In words: FRET-quench assay: probe cleavage by recombinant human FAP. The data set is classed as biochemical. The note with it: 10 nM enzyme.
Source text: (§3) Human prolyl oligopeptidase (PREP, 4308-SE), DPPIV (1180-SE), DPP9 (5419-SE), and DPPII/DPP7 (3438-SE) proteins were purchased from R&D Systems. Human DPP8 (BML-SE527) protein was purchased from Enzo Life Sciences. N-terminal octa-His-tagged human and mouse FAP proteins containing the extracellular domain (residues L26-D760 and L26-D761, respectively) were purified from the conditioned media of transiently-transfected CHO cells, by immobilized metal affinity chromatography (IMAC), followed by size exclusion chromatography (SEC).
as §2

In data set [6] the target is T4, recombinant human PREP (Homo sapiens, UniProt P48147).
T4 construct: purchased R&D Systems 4308-SE
T4 sequence (P48147 1-710): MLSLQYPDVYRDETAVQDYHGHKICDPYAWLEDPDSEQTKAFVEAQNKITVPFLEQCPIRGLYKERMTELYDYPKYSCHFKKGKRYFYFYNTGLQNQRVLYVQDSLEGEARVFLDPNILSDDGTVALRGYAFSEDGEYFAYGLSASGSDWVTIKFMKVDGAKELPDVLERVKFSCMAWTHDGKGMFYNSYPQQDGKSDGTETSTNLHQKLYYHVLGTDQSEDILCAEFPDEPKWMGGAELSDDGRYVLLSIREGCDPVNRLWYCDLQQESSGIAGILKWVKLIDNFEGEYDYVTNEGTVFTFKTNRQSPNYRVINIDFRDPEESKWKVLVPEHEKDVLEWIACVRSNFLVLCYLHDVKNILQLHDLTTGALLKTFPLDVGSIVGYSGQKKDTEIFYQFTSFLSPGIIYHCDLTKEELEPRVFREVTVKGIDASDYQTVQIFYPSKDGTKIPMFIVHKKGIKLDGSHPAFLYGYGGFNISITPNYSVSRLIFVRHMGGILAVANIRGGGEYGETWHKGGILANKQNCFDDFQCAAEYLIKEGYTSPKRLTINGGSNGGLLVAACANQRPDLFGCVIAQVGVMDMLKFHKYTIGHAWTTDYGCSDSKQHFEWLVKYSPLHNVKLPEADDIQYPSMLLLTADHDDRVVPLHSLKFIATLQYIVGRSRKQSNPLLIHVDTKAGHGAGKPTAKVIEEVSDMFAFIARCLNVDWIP
The experiment in a line: FRET-quench assay: probe cleavage by recombinant human PREP. In kind it is biochemical. As to conditions: 10 nM enzyme.
Source text: as §3, §2

Entries after “also recorded” stand apart in the source; their conditions may differ.

With `N#C[C@@H]1CCCN1C(=O)[C@@H]1CCCN1C(=O)CCCc1ccccc1` [KYP-2047], the “sensitivity of residual GP probe cleaving activity to the inhibitor” value in data set [1] (Fap KO plasma) is on record as “sensitive”.

In the case of `N#C[C@@H]1CC(F)(F)CN1C(=O)CNC(=O)c1ccnc2ccccc12` [cpd60], the “suppression of circulating (plasma) FAP activity” value in data set [2] was “completely suppress; also recorded: undetectable levels; also recorded: completely suppressed”. For the same compound, the “change in FAP-related activity” value in data set [3] (bolus p.o.) is on record as “transient decrease”. Further, in data set [3], the clearance from circulation entry is “rapid clearance”. For the same compound, in data set [1] (WT or heterozygous plasma), the “sensitivity of GP probe activity to the inhibitor” value is “clearly sensitive”.

As to “aP NIRF: identical to aP, but the FRET donor and quencher replaced with Cy5.5 and QSY21”, the “relative fluorescence intensities normalized to imaging area, KPP versus healthy control pancreata” value in data set [4] (4 hours after 1 nmol i.v., P<0.05) is “much greater fluorescence”. Moreover, in data set [4] (KPP group, 4 hours after 1 nmol i.v.), the “ex vivo imaging fluorescent signal of pancreata” value was “strong fluorescent signal”. Further, the treatment-related adverse effect entry in data set [4] (mice, 1 nmol i.v. via tail vein, until euthanasia after 4 hours) is listed as “No treatment-related adverse effect was observed”. The “cleavage by recombinant human FAP” value in data set [5] is given as “efficiently cleaves”. In addition, the “cleavage by recombinant human PREP” value in data set [6] is recorded as “not”.
